In patent publication US4584379A, “Isoquinoline thromboxane synthetase inhibitors” (Merrell Dow Pharmaceuticals Inc., priority 1985, dated 1986):

Legend:
washed platelets = test: 14C-arachidonic acid metabolism by washed platelets (TLC); type: cell-based, human
Procedure: Washed platelets (400 μl) prepared as above were placed in a cuvette. Either vehicle (50 μl), isoquinoline test compound, or indomethacin was then added. After incubation for 55 seconds at 37° C., 50 μl of calcium chloride (5 mM) was added and, at 60 seconds, 50 μl of ^14 C-arachidonic acid (0.1 μCi, 0.4 mM) was added. Four minutes later, 80 μl of 10% formic acid was added to stop the reaction. The contents were then poured into 6.5 ml of ice-cold ethyl acetate and the cuvette was further rinsed twice with 1 ml of ethyl acetate. The samples were subsequently extracted as previously described. The dried extract was reconstituted in chloroform:methanol (2:1) and spotted onto TLC plates. PGE2 PGF2α, TXB2 (20 μg of each) were spotted as the reference. The plates were developed in a chloroform:methanol, acetic acid, water (90:8:1:0.8) solution. […] Each plate was visualized with iodine vapor, the Rf s noted and then 1 cm zones scraped and counted in a Beckman Liquid Scintillation spectrometer.

microphages = test: endogenous arachidonic acid metabolism by microphages; type: cell-based
Procedure: To establish if the test compound was a selective thromboxane synthetase inhibitor or a fatty acid cyclooxygenase inhibitor, the effects of the isoquinoline on endogenous arachidonic acid metabolism by microphages was assessed. […] The effect on i-6-keto-PGFα levels was variable. At a concentration of 500 μm it inhibited i-6-keto-PGFα formation and at 250 μm it increased its formation. At all other concentrations it had no affect.

platelet rich plasma [1] = test: ADP induced platelet aggregation in platelet rich plasma (Born aggregometry); type: cell-based, human
Procedure: (§1) The specific inhibitory activity of the present compounds can be determined by the following procedures. For platelet aggregation, blood was collected from normal volunteers into sodium citrate (3.8% w/v) 9:1. The indicated volunteers had not ingested aspirin or other non-steroidal anti-inflammatory drugs for at least 7 days. Platelet rich plasma was prepared from the blood by centrifugation at 200×g for 15 minutes. This plasma was centrifuged at 10,000×g for 2 minutes to obtain platelet poor plasma blank. The platelet rich plasma was incubated at 37° C. for 60 seconds prior to addition of vehicle or compound. The platelet rich plasma was then incubated for an additional 60 seconds prior to the addition of arachidonic acid or ADP. Aliquots (50 μl) were removed at 30 and 60 seconds after the addition of arachidonic acid for determination of iTXB2. Platelet aggregation was monitored in a Model 300 Chronolog aggregometer using the method of Born.

thromboxane synthetase [2] = test: iTXB2 produced during arachidonic acid induced platelet aggregation; type: cell-based, human; details: 1 mM
Procedure: as §1

platelet rich plasma [3] = test: arachidonic acid induced platelet aggregation in platelet rich plasma (Born aggregometry); type: cell-based, human
Procedure: as §1

thromboxane synthetase [4] = test: iTXB2 production by whole blood after intravenous dosing of rats; type: in vivo, Sprague-Dawley rats; details: 30 minutes prior to obtaining blood, female rats
Procedure: Varying doses of the test compound were administered intravenously to female Sprague-Dawley rats weighing between 250-300 g 30 minutes prior to obtaining blood. […] A dose of 10 mg/kg produced approximately a 50% inhibition of iTXB2 production.

Q: How did the inhibition at 50 µM (washed platelets; Homo sapiens, Platelet, 4 min, read-out: reduction of metabolism of arachidonic acid compared to controls) turn out when `COc1ccc2c(c1)c(CC(=O)O)c(C)n2C(=O)c1ccc(Cl)cc1` [indomethacin, reference compound] was run?
A: 78%

Q: How did the “basal synthesis of iTXB2 by microphages” value (microphages; 10 μM to 1000 μM) turn out when `O=C(O)c1ccc(NCc2cncc3ccccc23)cc1` [isoquinoline, 4-[(4-isoquinolinylmethyl)amino]benzoic acid] was run?
A: significantly reduced

Q: And the i-6-keto-PGFα formation (microphages; 250 μm)?
A: increased

Q: And the i-6-keto-PGFα formation (microphages; 500 μm)?
A: inhibited

Q: And the i-6-keto-PGFα formation (microphages; all other concentrations)?
A: no affect

Q: What about the iPGE levels (microphages; at most concentrations) of the same compound?
A: significantly increased

Q: And the “selectivity for thromboxane synthesis” value (microphages; conclusion from iTXB2, iPGE and i-6-keto-PGFα levels)?
A: appears to selectively inhibit thromboxane synthesis

Q: And the “ADP induced platelet aggregation as compared to control” value (platelet rich plasma [1]; 1 mM)?
A: marked effect

Q: What about the inhibition at 1000 µM (platelet rich plasma [1]; Homo sapiens, Platelet, 1 min, 1000 μM, at 60 seconds, read-out: reduction of ADP aggregation) of the same compound?
A: 30%

Q: And the “percent of arachidonic acid converted to PGE2” value (washed platelets; washed platelets)?
A: did not affect

Q: What about the “percentage of arachidonic acid converted to TXB2” value (washed platelets; washed platelets) of the same compound?
A: reduced

Q: And the “total amount of arachidonic acid metabolized via the cyclo-oxygenase pathway” value (washed platelets; washed platelets, versus vehicle controls)?
A: not different from the vehicle controls

Q: And the “amounts of iTXB2 produced during arachidonic acid induced platelet aggregation” value (thromboxane synthetase [2]; 30 seconds)?
A: significantly reduced

Q: And the “amounts of iTXB2 produced during arachidonic acid induced platelet aggregation” value (thromboxane synthetase [2]; 60 seconds)?
A: significantly reduced

Q: And the “rate of arachidonic acid induced platelet aggregation” value (platelet rich plasma [3]; 0.5 mM)?
A: significantly inhibited

Q: What about the “rate of arachidonic acid induced platelet aggregation” value (platelet rich plasma [3]; 1 mM) of the same compound?
A: significantly inhibited

Q: What about the “inhibition of iTXB2 production” value (thromboxane synthetase [4]; 10 mg/kg intravenously) of the same compound?
A: ~50%

Q: What about the “iTXB2 production by whole blood” value (thromboxane synthetase [4]; varying doses intravenously) of the same compound?
A: dose dependent reduction
